Results on 15 molecules are retold here after article PMC11191687.

A short description of the series: lactamisation (head-to-tail or side-chain-to-tail) of unprotected peptide acyl azide (from hydrazide, 20 equiv NaNO2, pH 3, -15 C, then NaHCO3 to pH ~7), MeCN cosolvent. The note with it: aq phosphate buffer (6 M GdmCl) diluted with 2 vol 50% MeCN/water, 2.2 mM, 2 steps.

Consider `C=CC[C@@H]1NC(=O)[C@H](CC(C)C)NC(=O)[C@H](CC(C)C)N(C)C(=O)[C@H](C)NC(=O)[C@H](Cc2ccc(O)c([N+](=O)[O-])c2)NC(=O)[C@H](CC(C)C)NC(=O)[C@H](Cc2cn(C(C)(C)C=C)c3ccccc23)NC1=O`, for which the ring closure, conversion by HPLC (from C=CC[C@H](NC(=O)[C@H](CC(C)C)NC(=O)[C@H](CC(C)C)N(C)C(=O)[C@H](C)NC(=O)[C@H](Cc1ccc(O)c([N+](=O)[O-])c1)NC(=O)[C@H](CC(C)C)NC(=O)[C@@H](N)Cc1cn(C(C)(C)C=C)c2ccccc12)C(=O)N=[N+]=[N-], 21-membered ring, 0.27 h) was less than 50%. With `C=CC[C@@H]1NC(=O)[C@H](CC(C)C)NC(=O)[C@H](CC(C)C)NC(=O)[C@H](C)NC(=O)[C@H](Cc2ccc(O)c([N+](=O)[O-])c2)NC(=O)[C@H](CC(C)C)N(C)C(=O)[C@H](Cc2cn(C(C)(C)C=C)c3ccccc23)NC1=O`, the ring closure, conversion by HPLC (from C=CC[C@H](NC(=O)[C@H](CC(C)C)NC(=O)[C@H](CC(C)C)NC(=O)[C@H](C)NC(=O)[C@H](Cc1ccc(O)c([N+](=O)[O-])c1)NC(=O)[C@H](CC(C)C)N(C)C(=O)[C@@H](N)Cc1cn(C(C)(C)C=C)c2ccccc12)C(=O)N=[N+]=[N-], 21-membered ring, 0.27 h) was less than 50%. Take `C=CC[C@@H]1NC(=O)[C@H](CC(C)C)NC(=O)[C@H](CC(C)C)NC(=O)[C@H](C)NC(=O)[C@H](Cc2ccc(O)c([N+](=O)[O-])c2)NC(=O)[C@H](CC(C)C)NC(=O)[C@H](Cc2cn(C(C)(C)C=C)c3ccccc23)NC1=O`: the ring closure, conversion by HPLC (from C=CC[C@H](NC(=O)[C@H](CC(C)C)NC(=O)[C@H](CC(C)C)NC(=O)[C@H](C)NC(=O)[C@H](Cc1ccc(O)c([N+](=O)[O-])c1)NC(=O)[C@H](CC(C)C)NC(=O)[C@@H](N)Cc1cn(C(C)(C)C=C)c2ccccc12)C(=O)N=[N+]=[N-], 21-membered ring) was 0%. For `CCCCC(C)CCC(=O)N[C@@H](CCN)C(=O)N[C@H](C(=O)N[C@@H](CCN)C(=O)N[C@H]1CCNC(=O)[C@H]([C@@H](C)O)NC(=O)[C@H](CCN)NC(=O)[C@H](CCN)NC(=O)[C@H](CC(C)C)NC(=O)[C@@H](CC(C)C)NC(=O)[C@H](CCN)NC1=O)[C@@H](C)O` (stereo partly drawn), the ring closure, conversion by HPLC (from CCCCC(C)CCC(=O)N[C@@H](CCN)C(=O)N[C@H](C(=O)N[C@@H](CCN)C(=O)N[C@@H](CCN)C(=O)N[C@@H](CCN)C(=O)N[C@H](CC(C)C)C(=O)N[C@@H](CC(C)C)C(=O)N[C@@H](CCN)C(=O)N[C@@H](CCN)C(=O)N[C@H](C(=O)N=[N+]=[N-])[C@@H](C)O)[C@@H](C)O, 23-membered ring, 0.017 h) came out at 56%. Consider `CC(=O)N[C@@H](Cc1ccccc1)C(=O)N[C@H]1CCCNC(=O)[C@H](CCCNC(=N)N)NC(=O)[C@H](Cc2c[nH]c3ccccc23)NC(=O)[C@@H](Cc2ccc(O)cc2)NC(=O)[C@@H]2CCCN2C1=O` [Ac-Phe-Orn(cyclises via side chain)-Pro-D-Tyr-Trp-Arg-N3], for which, under “from CC(=O)N[C@@H](Cc1ccccc1)C(=O)N[C@@H](CCCN)C(=O)N1CCC[C@H]1C(=O)N[C@H](Cc1ccc(O)cc1)C(=O)N[C@@H](Cc1c[nH]c2ccccc12)C(=O)N[C@@H](CCCNC(=N)N)C(=O)N=[N+]=[N-], 18-membered ring, 0.35 h”, the ring closure, conversion by HPLC amounted to 95%. As to `CC(C)C[C@H]1C(=O)N[C@@H](C)C(=O)N[C@@H](C)C(=O)N[C@@H](C)C(=O)N(C)[C@@H](CC(C)C)C(=O)N[C@@H](C)C(=O)N[C@@H](C)C(=O)N1C` [H-Ala-N-Me-Leu-Ala-Ala-N-Me-Leu-Ala-Ala-N3], the ring closure, conversion by HPLC (from CC(C)C[C@@H](C(=O)N[C@@H](C)C(=O)N[C@@H](C)C(=O)N(C)[C@@H](CC(C)C)C(=O)N[C@@H](C)C(=O)N[C@@H](C)C(=O)N=[N+]=[N-])N(C)C(=O)[C@H](C)N, 21-membered ring, 0.35 h) came out at 89%. Turning to `CC(C)C[C@H]1C(=O)N[C@@H](C)C(=O)N[C@@H](C)C(=O)N(C)[C@@H](CC(C)C)C(=O)N[C@@H](C)C(=O)NCC(=O)N[C@@H](C)C(=O)N1C` [H-Ala-N-Me-Leu-Ala-Ala-N-Me-Leu-Ala-Gly-N3], the ring closure, conversion by HPLC (from CC(C)C[C@@H](C(=O)N[C@@H](C)C(=O)N[C@@H](C)C(=O)N(C)[C@@H](CC(C)C)C(=O)N[C@@H](C)C(=O)NCC(=O)N=[N+]=[N-])N(C)C(=O)[C@H](C)N, 21-membered ring, 0.35 h) was determined as 90%.

As for `C[C@@H]1NC(=O)[C@H](C)NC(=O)[C@@H]2CCCN2C(=O)[C@H](C)NC(=O)[C@H](C)NC(=O)[C@@H]2CCCN2C(=O)[C@H](C)NC1=O` [H-Ala-Pro-Ala-Ala-Pro-Ala-Ala-N3], under “from C[C@H](N)C(=O)N1CCC[C@H]1C(=O)N[C@@H](C)C(=O)N[C@@H](C)C(=O)N1CCC[C@H]1C(=O)N[C@@H](C)C(=O)N[C@@H](C)C(=O)N=[N+]=[N-], 21-membered ring, 0.68 h”, the ring closure, conversion by HPLC turned out to be 80%. Regarding `C[C@@H]1NC(=O)CN(C)C(=O)[C@H](C)NC(=O)[C@H](C)NC(=O)CN(C)C(=O)[C@H](C)NC(=O)[C@H](C)NC1=O` [H-Ala-Sar-Ala-Ala-Sar-Ala-Ala-N3], the ring closure, conversion by HPLC (from C[C@H](N)C(=O)N(C)CC(=O)N[C@@H](C)C(=O)N[C@@H](C)C(=O)N(C)CC(=O)N[C@@H](C)C(=O)N[C@@H](C)C(=O)N=[N+]=[N-], 21-membered ring, 0.35 h) came out at 96%. As to `CC(C)C[C@@H]1NC(=O)[C@H](CCCN)NC(=O)[C@H](C(C)C)NC(=O)[C@H](Cc2ccc(O)cc2)NC(=O)[C@H](CCC(N)=O)NC(=O)[C@H](CC(N)=O)NC(=O)[C@@H](Cc2ccccc2)NC(=O)[C@H](Cc2ccccc2)NC(=O)[C@@H]2CCCN2C(=O)[C@@H](Cc2ccccc2)NC1=O` [H-D-Phe-Pro-Phe-D-Phe-Asn-Gln-Tyr-Val-Orn-Leu-N3], the ring closure, conversion by HPLC (from CC(C)C[C@H](NC(=O)[C@H](CCCN)NC(=O)[C@@H](NC(=O)[C@H](Cc1ccc(O)cc1)NC(=O)[C@H](CCC(N)=O)NC(=O)[C@H](CC(N)=O)NC(=O)[C@@H](Cc1ccccc1)NC(=O)[C@H](Cc1ccccc1)NC(=O)[C@@H]1CCCN1C(=O)[C@H](N)Cc1ccccc1)C(C)C)C(=O)N=[N+]=[N-], 30-membered ring, 0.33 h) amounted to 95%. As to `CC(C)C[C@@H]1NC(=O)[C@H](CCCN)NC(=O)[C@H](C(C)C)NC(=O)[C@@H]2CCCN2C(=O)[C@@H](Cc2ccccc2)NC(=O)[C@H](CC(C)C)NC(=O)[C@H](CCCN)NC(=O)[C@H](C(C)C)NC(=O)[C@@H]2CCCN2C(=O)[C@@H](Cc2ccccc2)NC1=O` [H-D-Phe-Pro-Val-Orn-Leu-D-Phe-Pro-Val-Orn-Leu-N3], the ring closure, conversion by HPLC (from CC(C)C[C@H](NC(=O)[C@H](CCCN)NC(=O)[C@@H](NC(=O)[C@@H]1CCCN1C(=O)[C@@H](Cc1ccccc1)NC(=O)[C@H](CC(C)C)NC(=O)[C@H](CCCN)NC(=O)[C@@H](NC(=O)[C@@H]1CCCN1C(=O)[C@H](N)Cc1ccccc1)C(C)C)C(C)C)C(=O)N=[N+]=[N-], 30-membered ring, 0.33 h) was found to be 92%.

For the molecule `CC(C)C[C@@H]1NC(=O)[C@H](Cc2ccc(O)cc2)NC(=O)[C@@H]2CCCN2C(=O)CNC(=O)[C@H](C)NC1=O` [H-Gly-Pro-Tyr-Leu-Ala-N3], under “from CC(C)C[C@H](NC(=O)[C@H](Cc1ccc(O)cc1)NC(=O)[C@@H]1CCCN1C(=O)CN)C(=O)N[C@@H](C)C(=O)N=[N+]=[N-], 15-membered ring, 0.35 h”, the ring closure, conversion by HPLC is 77%. On to `C=CC[C@@H]1NC(=O)[C@H](CC(C)C)NC(=O)[C@H](CC(C)C)N(C)C(=O)[C@H](C)NC(=O)[C@H](Cc2ccc(O)c([N+](=O)[O-])c2)NC(=O)[C@H](CC(C)C)N(C)C(=O)[C@H](Cc2cn(C)c3ccccc23)NC1=O` [H-Leu-allylGly-Trp(1-Me)-N-Me-Leu-Tyr(3-NO2)-Ala-N-Me-Leu-N3], for which the ring closure, conversion by HPLC (from C=CC[C@H](NC(=O)[C@@H](N)CC(C)C)C(=O)N[C@@H](Cc1cn(C)c2ccccc12)C(=O)N(C)[C@@H](CC(C)C)C(=O)N[C@@H](Cc1ccc(O)c([N+](=O)[O-])c1)C(=O)N[C@@H](C)C(=O)N(C)[C@@H](CC(C)C)C(=O)N=[N+]=[N-], 21-membered ring, 1.35 h) was 20%.

Consider `CSCC[C@@H]1NC(=O)[C@H](C(C)C)NC(=O)[C@H](CC(C)C)NC(=O)CNC(=O)[C@@H]2CCCN2C(=O)[C@H](C(C)C)NC(=O)CNC(=O)[C@H](Cc2ccccc2)NC1=O` [H-Phe-Gly-Val-Pro-Gly-Leu-Val-Met-N3], for which the ring closure, conversion by HPLC (from CSCC[C@H](NC(=O)[C@@H](NC(=O)[C@H](CC(C)C)NC(=O)CNC(=O)[C@@H]1CCCN1C(=O)[C@@H](NC(=O)CNC(=O)[C@@H](N)Cc1ccccc1)C(C)C)C(C)C)C(=O)N=[N+]=[N-], 24-membered ring, 0.35 h) amounted to 38%. Turning to `CC[C@H](C)[C@@H]1NC(=O)CNC(=O)[C@H](CO)NC(=O)[C@@H]2CCCN2C(=O)[C@H](C(C)C)NC(=O)[C@@H]2CCCN2C(=O)CNC(=O)[C@H](Cc2ccccc2)NC1=O` [H-Pro-Val-Pro-Ser-Gly-Ile-Phe-Gly-N3], the ring closure, conversion by HPLC (from CC[C@H](C)[C@H](NC(=O)CNC(=O)[C@H](CO)NC(=O)[C@@H]1CCCN1C(=O)[C@@H](NC(=O)[C@@H]1CCCN1)C(C)C)C(=O)N[C@@H](Cc1ccccc1)C(=O)NCC(=O)N=[N+]=[N-], 24-membered ring, 1.67 h) is 58%.
